IC50 data for 6 molecules are collected here from ChEMBL document CHEMBL5729619, “Substituted pyrazolo[3,4-b]pyrazines as SHP2 phosphatase inhibitors” (2023).

Each structure is given as a SMILES string.

Usually IC50 stands for the concentration that inhibits the measured activity by half. Read a low IC50 as greater potency in that assay.

The assay deals with T1, Tyrosine-protein phosphatase non-receptor type 11 (Homo sapiens, UniProt Q06124).
T1 sequence (Q06124 whole entry): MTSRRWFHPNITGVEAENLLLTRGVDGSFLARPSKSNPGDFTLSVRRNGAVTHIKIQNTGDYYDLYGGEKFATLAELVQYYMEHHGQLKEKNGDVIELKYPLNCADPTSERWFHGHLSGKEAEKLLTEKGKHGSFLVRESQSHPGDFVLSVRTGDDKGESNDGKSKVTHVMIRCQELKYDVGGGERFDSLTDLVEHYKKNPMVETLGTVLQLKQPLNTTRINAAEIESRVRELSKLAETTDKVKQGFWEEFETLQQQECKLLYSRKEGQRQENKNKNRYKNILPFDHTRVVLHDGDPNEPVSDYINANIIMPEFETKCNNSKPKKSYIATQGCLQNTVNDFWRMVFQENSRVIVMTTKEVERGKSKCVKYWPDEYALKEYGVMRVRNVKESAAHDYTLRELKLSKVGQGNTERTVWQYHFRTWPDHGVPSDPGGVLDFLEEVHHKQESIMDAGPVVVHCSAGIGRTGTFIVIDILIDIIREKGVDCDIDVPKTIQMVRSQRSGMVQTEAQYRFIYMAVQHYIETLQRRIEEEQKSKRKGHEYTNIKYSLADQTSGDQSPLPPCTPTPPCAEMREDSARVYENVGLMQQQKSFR
Put plainly: Inhibition Assay: SHP2 is allosterically activated through binding of bis-tyrosyl-phorphorylated peptides to its Src Homology 2 (SH2) domains. The latter activation step leads to the release of the auto-inhibitory interface of SHP2, which in turn renders the SHP2 protein tyrosine phosphatase (PTP) active and available for substrate recognition and reaction catalysis. The catalytic activity of SHP2 was monitored using the surrogate substrate DiFMUP in a prompt fluorescence assay format.The inhibition of SHP2 by compounds of the disclosure (concentrations varying from 0.003-100 μM) was monitored using an assay in which 0.25 nM of SHP2 was incubated with of 0.5 μM of peptide IRS1_pY1172(dPEG8)pY1222 (sequence: H2N-LN(pY)IDLDLV(dPEG8)LST(pY)ASINFQK-amide) After 30-60 minutes incubation at 25° C., the surrogate substrate DiFMUP (Invitrogen, cat #D6567, 100 μM final) was added to the reaction and the conversion of DiFMUP to 6,8-difluoro-7-hydroxyl-4-methyl coumarin (DiFMU) was monitored continuously for 10 minutes with excitation at 355 nm and emission at 460 nm using a microplate reader (PolarStar, BMG).
The molecule `C[C@@H]1CCN(c2n[nH]c3nc(N4CCC5(CC4)CO[C@@H](C)[C@H]5N)cnc23)c2ccc(C(=O)NCc3cccnc3)nc21` displayed an IC50 of less than 1 µM.

Take `C[C@@H]1OCC2(CCN(c3cnc4c(N5CC(=O)N(C)c6cnccc65)n[nH]c4n3)CC2)[C@@H]1N`: the half-maximal inhibitory concentration (IC50) is less than 1 µM.

`C[C@@H]1OCC2(CCN(c3cnc4c(N5CCCc6nc(N7CCN(C)C(=O)C7)ccc65)n[nH]c4n3)CC2)[C@@H]1N` gave an IC50 of less than 1 µM.

`CC1(CN)CCN(c2cnc3c(N4CCc5c(C6CC6)cccc54)n[nH]c3n2)CC1` had a half-inhibitory concentration (IC50) of less than 1 µM.

Molecule `C[C@@H]1OCC2(CCN(c3cnc4c(N5CCNc6cnccc65)n[nH]c4n3)CC2)[C@@H]1N` returned a concentration for half-maximal inhibition (IC50) of less than 1 µM.

In the case of `C[C@@H]1OCC2(CCN(c3cnc4c(N5CCCc6c5cccc6S(=O)(=O)N(C)C)n[nH]c4n3)CC2)[C@@H]1N`, the 50% inhibitory concentration (IC50) is less than 1 µM.
